# Source: patent US7718651B2, “Inhibitors of FtsZ and uses thereof” (priority 2002, dated 2010)
# Tested on: M. tuberculosis H37Rv
# Experiment: microbe, parasite or virus in culture
# Type: cell-based
# Settings: not given
row,Structure (SMILES),% Inh
1,CCOC(=O)Nc1cc(N[C@@H](C)C(=O)c2ccc(O)cc2)c([N+](=O)[O-])c(N)n1 [Compound A305],−2%

# Same assay, conditions: M. tuberculosis H37Rv, screen concentration 12.5 g/ml [sic], Table 8
row,Structure (SMILES),% Inh
1,CCOC(=O)Nc1cc(NCC(=O)c2ccc([N+](=O)[O-])cc2)c([N+](=O)[O-])c(N)n1 [Compound A220],0%
2,CCOC(=O)Nc1cc(NC/C(=N/O)c2ccc(C(F)(F)F)cc2)c([N+](=O)[O-])c(N)n1 [Compound A221],0%
3,CCOC(=O)Nc1cc(NCC(=O)c2ccc(C(F)(F)F)cc2)c([N+](=O)[O-])c(N)n1 [Compound A222],0%
4,CCOC(=O)Nc1ccc(/N=C/c2ccccc2)cn1 [Compound A223],0%
5,CCOC(=O)Nc1cc2c(c(N)n1)N=C(c1ccccc1)CO2 [Compound A224],0%
6,CCOC(=O)Nc1cc2c(c(N)n1)N=C(c1ccc([N+](=O)[O-])cc1)CO2 [Compound A225],0%
7,CCOC(=O)Nc1cc2c(c(N)n1)N=C(c1ccc(Cl)cc1)CO2 [Compound A226],0%
8,CCOC(=O)Nc1cc2c(c(N)n1)N=C(c1cc(OC)c(OC)c(OC)c1)CO2 [Compound A227],0%
9,CCOC(=O)Nc1cc2oc(=O)c(-c3ccccc3)nc2c(N)n1 [Compound A228],0%
10,CCOC(=O)Nc1cc2c(c(NC(=O)CBr)n1)N=C(c1ccccc1)CO2 [Compound A229],0%
11,CCOC(=O)Nc1cc2c(c(/N=C/N(C)C)n1)N=C(c1ccccc1)CO2 [Compound A230],0%
12,CCOC(=O)Nc1cc(NC/C(=N/O)c2cccc(OC)c2)c([N+](=O)[O-])c(N)n1 [Compound A231],0%
13,CCOC(=O)Nc1cc(NCC(O)CN(C)C)c([N+](=O)[O-])c(N)n1 (stereo not shown) [Compound A232],0%
14,CCOC(=O)Nc1cc(NCC(C)CN(C)c2ccc(OC)cc2)c([N+](=O)[O-])c(N)n1 (stereo not shown) [Compound A233],0%
15,CCOC(=O)Nc1cc(Cl)c2nc(-c3ccccc3)[nH]c2n1 [Compound A234],0%
16,CCOC(=O)Nc1cc(NC/C(=N/O)c2ccccc2)c([N+](=O)[O-])c(N)n1 [Compound A235],0%
17,CCOC(=O)Nc1ccc(N)c(N)n1 [Compound A236],0%
18,CCOC(=O)Nc1cc(NCC(=O)c2ccc(OC)cc2)c([N+](=O)[O-])c(N)n1 [Compound A237],0%
19,CCOC(=O)Nc1cc(NC/C(=N/O)c2ccc([N+](=O)[O-])cc2)c([N+](=O)[O-])c(N)n1 [Compound A238],0%
20,CCOC(=O)Nc1cc(NC/C(=N/O)c2ccc(Cl)cc2)c([N+](=O)[O-])c(N)n1 [Compound A239],0%
21,CCOC(=O)Nc1cc(NCC(=O)c2ccc(Cl)cc2)c([N+](=O)[O-])c(N)n1 [Compound A240],0%
22,CCOC(=O)Nc1cc2c([nH]c(=S)n2/N=C/c2ccc3c(c2)OCO3)c(N)n1 [Compound A241],0%
23,CCOC(=O)Nc1cc2c(ncn2/N=C/c2ccc(OC)cc2)c(N)n1 [Compound A242],0%
24,CCOC(=O)Nc1cc(NC(C)CCCN(CC)CC)c([N+](=O)[O-])c(N)n1 (stereo not shown) [Compound A243],0%
25,CCOC(=O)Nc1cc(NCc2ccc(S(N)(=O)=O)cc2)c([N+](=O)[O-])c(N)n1 [Compound A244],0%
26,CCOC(=O)Nc1cc(NCCc2ccc(S(N)(=O)=O)cc2)c2ncc(C)nc2n1 [Compound A251],0%

row,Structure (SMILES),% Inh
1,CCOC(=O)Nc1cc(NCCc2ccc(S(=O)(=O)N(CC)CC)cc2)c2nccnc2n1 [Compound A252],0%
2,CCOC(=O)Nc1cc(NC(C)CCCN(CC)CC)c2nccnc2n1 (stereo not shown) [Compound A253],0%
3,CCOC(=O)Nc1cc(NC(C)CCCN(CC)CC)c2ncc(C)nc2n1 (stereo not shown) [Compound A254],0%
4,CCOC(=O)Nc1cc(NCCc2ccc(S(=O)(=O)N(CC)CC)cc2)c2ncc(C)nc2n1 [Compound A255],0%
5,CCOC(=O)Nc1cc(Nc2ccc(Cl)cc2)c([N+](=O)[O-])c(N)n1 [Compound A256],0%
6,CCOC(=O)Nc1cc(Nc2ccc(Cl)cc2)c2nc(-c3ccccc3)c(-c3ccccc3)nc2n1 [Compound A257],0%
7,CCOC(=O)Nc1cc(Nc2ccc(Cl)cc2)c2ncc(-c3ccc(Cl)cc3)nc2n1 [Compound A258],0%
8,CCOC(=O)Nc1cc(NCCc2ccc(S(=O)(=O)N(CC)CC)cc2)c2ncc(-c3ccc(Cl)cc3)nc2n1 [Compound A259],0%
9,CCOC(=O)Nc1cc(Nc2ccc(Cl)cc2)c2ncc(C)nc2n1 [Compound A260],0%
10,CCOC(=O)Nc1cc(NC(c2ccccc2)c2ccccc2)c2ncc(-c3ccc(Cl)cc3)nc2n1 [Compound A261],0%
11,CCOC(=O)Nc1cc(N)c2ncc(-c3ccc(Cl)cc3)nc2n1 [Compound A262],0%
12,CCOC(=O)Nc1cc(NC(c2ccccc2)c2ccccc2)c(/N=C/c2ccc(Cl)cc2Cl)c(N)n1 [Compound A263],0%
13,CCOC(=O)Nc1cc(NC(c2ccccc2)c2ccccc2)c([N+](=O)[O-])c(N)n1 [Compound A264],0%
14,CCOC(=O)Nc1cc(NC(c2ccccc2)c2ccccc2)c2nc(-c3cc(OC)c(OC)c(OC)c3)cnc2n1 [Compound A265],0%
15,CCCCOC(=O)Nc1cc(NC(c2ccccc2)c2ccccc2)c2nc(-c3cc(OC)c(OC)c(OC)c3)c(-c3cc(OC)c(OC)c(OC)c3)nc2n1 [Compound A267],0%
16,CCOC(=O)Nc1cc(Cl)c2nc(-c3cc(OC)c(OC)c(OC)c3)c(-c3cc(OC)c(OC)c(OC)c3)nc2n1 [Compound A268],0%
17,CCOC(=O)Nc1cc(NC(C)CCCN(CC)CC)c([N+](=O)[O-])c(N)n1.Cl (stereo not shown) [Compound A269],0%
18,CCOC(=O)Nc1cc(NC(c2ccccc2)c2ccccc2)c2ncc(=O)[nH]c2n1 [Compound A270],0%
19,CCOC(=O)Nc1cc(NCC(O)CN)c([N+](=O)[O-])c(NC(=O)OCC)n1 (stereo not shown) [Compound A271],0%
20,CCOC(=O)Nc1cc(N)c([N+](=O)[O-])c(NC(=O)OCC)n1 [Compound A272],0%
21,CCOC(=O)Nc1cc(N)c2nc(CN(C)c3ccccc3)cnc2n1 [Compound A273],0%
22,CCOC(=O)Nc1cc(N)c([N+](=O)[O-])c(NCC(O)CN(C)c2ccccc2)n1 (stereo not shown) [Compound A274],0%
23,CCOC(=O)Nc1cc(N)c2nc(O)[nH]c2n1 [Compound A275],0%
24,CCOC(=O)Nc1cc2ncc(C)nc2c(NC(=O)OCC)n1 [Compound A276],0%
25,CCOC(=O)Nc1cc2nc(C)cnc2c(NC(=O)OCC)n1 [Compound A277],0%
26,CCOC(=O)Nc1cc2[nH]cnc2c(NC(=O)OCC)n1.Cl [Compound A278],0%

row,Structure (SMILES),% Inh
1,C=CCNc1cc(NC(=O)OCC)nc(N)c1[N+](=O)[O-] [Compound A279],0%
2,CCOC(=O)Nc1cc(NC(c2ccccc2)c2ccccc2)c2nc[nH]c2n1.Cl [Compound A280],0%
3,C=CCNc1cc(NC(=O)OCC)nc(NC(=O)OCC)c1[N+](=O)[O-] [Compound A281],0%
4,CCOC(=O)Nc1cc(N)c2nc(C)cnc2n1 [Compound A282],0%
5,CCOC(=O)Nc1cc(N)c2c(n1)NCC(C)=N2 [Compound A283],0%
6,Nc1nc(NC(=O)OCc2ccccc2)cc(Cl)c1[N+](=O)[O-] [Compound A286],0%
7,CCOC(=O)Nc1cc2c(c(N)n1)N=C(CN(C)c1ccc(C(=O)OC)cc1)CN2 [Compound A288],0%
8,CCOC(=O)Nc1cc2ncc(CNc3ccc(C(=O)OCC)cc3)nc2c(N)n1 [Compound A289],0%
9,CCOC(=O)Nc1cc(NC/C(CNc2ccc(C(=O)OCC)cc2)=N/O)c([N+](=O)[O-])c(N)n1 [Compound A291],0%
10,CCOC(=O)Nc1cc(NCC(=O)COc2ccc(C(=O)OCC)cc2)c([N+](=O)[O-])c(N)n1 [Compound A292],0%
11,CCOC(=O)N(Cc1ccccc1)c1cc(Cl)c([N+](=O)[O-])c(N)n1 [Compound A293],0%
12,CCOC(=O)N(Cc1ccc(S(N)(=O)=O)cc1)c1cc(Cl)c([N+](=O)[O-])c(N)n1 [Compound A294],0%
13,CCOC(=O)Nc1cc(NC(c2ccccc2)c2ccccc2)c([N+](=O)[O-])c(OCC(=O)c2ccc(Br)cc2)n1 [Compound A295],0%
14,CCOC(=O)Nc1cc2[nH]c(-c3cccc(C)c3)nc2c(N(CCc2ccccc2)Cc2ccccc2)n1 [Compound A297],0%
15,CCOC(=O)Nc1cc(NC(c2ccccc2)c2ccccc2)c([N+](=O)[O-])c(O)n1 [Compound A298],0%
16,CCOC(=O)Nc1cc(NC(c2ccccc2)c2ccccc2)c([N+](=O)[O-])c(Cl)n1 [Compound A299],0%
17,CCOC(=O)Nc1cc(NCC(=O)c2ccc(-c3ccccc3)cc2)c([N+](=O)[O-])c(N)n1 [Compound A300],0%
18,CCOC(=O)Nc1cc(NC(CC)C(O)c2ccccc2)c([N+](=O)[O-])c(N)n1 (stereo not shown) [Compound A301],−1%
19,CCCCC(Nc1cc(NC(=O)OCC)nc(N)c1[N+](=O)[O-])C(C)O (stereo not shown) [Compound A302],−1%
20,CCOC(=O)Nc1cc(NC(C)C(O)c2ccc(O)cc2)c([N+](=O)[O-])c(N)n1 (stereo not shown) [Compound A303],−2%
21,CCOC(=O)Nc1cc(N[C@@H](C)C(=O)c2ccc(O)cc2)c([N+](=O)[O-])c(N)n1 [Compound A304],−2%
22,CCOC(=O)Nc1cc2c(c(N)n1)N=C(c1ccccc1)C(CC)N2 (stereo not shown) [Compound A306],−3%
23,CCOC(=O)Nc1cc(NC(CC)C(=O)c2ccccc2)c([N+](=O)[O-])c(N)n1 (stereo not shown) [Compound A307],−8%
24,CCOC(=O)Nc1cc(NCCC(=O)c2ccccc2)c([N+](=O)[O-])c(N)n1 [Compound A308],−8%
25,CCOC(=O)Nc1cc(N[C@@H](C)C(O)c2ccccc2)c([N+](=O)[O-])cn1 (stereo partly shown) [Compound A309],−10%
26,CCOC(=O)Nc1cc(N[C@H](C)[C@@H](O)c2ccccc2)c(N)c(N)n1 [Compound A310],−15%
